Like-named read-outs stand apart in the source and are kept apart here.

For data set [1], the target named is Recombinant human NEP (Homo sapiens, UniProt P08473). Briefly: in vitro NEP cleavage assay (disappearance of non-cleaved CNP variant). The gist of the method:
(§1)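 Recombinant human NEP (1 ug/mL final) incubated with 100 uM CNP variant in 0.1 M Tris, pH 7, at 37° C for various times, then quenched with EDTA (10 mM final) and heat. Samples reduced and analysed by HPLC and mass spectrometry. Half-life derived from loss of intact variant over time.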

The target in data set [2] is neutral endopeptidase (NEP) (Homo sapiens, UniProt P08473). Kind of data set: in vitro. The settings on record: human, pH 7. The gist of the method:
as §1

In data set [3] the test system is wild type mice. Conditions: mouse, in vivo.
A short description of data set [4]: IgG assay (immunogenicity) in mice. Conditions: wild-type mice, 5 weeks. Here is the method: An IgG assay was performed to assess whether an IgG immune response was triggered by 5 week exposure of achondroplastic FGFR3^ach mice to CNP22, CNP37 or PEO24-GANRR-CNP22(K4R) (“CNP27-PEO24”) (SEQ ID NO: 36). IgG is the most predominant immunoglobulin in mouse and human serum and is produced as part of the secondary immune response to an antigen. The IgG response to administration of the CNP peptides was determined as follows. 96-well plates were coated with 100 ng/mL CNP22, CNP37 or PEO24-GANRR-CNP22(K4R) (SEQ ID NO: 36) in BupH PBS buffer (Pierce/Thermo, Cat. No. 28372, Rockford, Ill.). After overnight incubation, plates were blocked with Casein-PBS blocking buffer (Pierce/Thermo, Cat. No. 37528) for two hours at room temperature with shaking at 300 rpm. After washing with wash buffer (1×PBS with 0.05% Tween), diluted serum samples from a terminal bleed (diluted 1:25) were added to the plate. Positive and negative controls were also loaded onto the plate. Positive control was 1:25 diluted serum (pooled from 6 individual FVB mice) with anti-CNP22 antibody added (Bachem rabbit anti-CNP22 IgG, Cat. No. T-4222) at 1:1000 dilution. Negative control was the diluted pooled serum. After two hours of incubation, the plates were washed and secondary antibody diluted in blocking buffer was added to the wells. For the mouse serum samples, anti-mouse IgG Fcγ (peroxidase-conjugated affinipure goat anti-mouse IgG, Fcγ fragment, Cat. No. 115-035-071, Jackson Immunoresearch, West Grove, Pa.) was added at a 1:10,000 dilution. For the positive and negative controls, anti-rabbit IgG-HRP (Santa Cruz Biotechnology, Cat. No. SC-2004, Santa Cruz, Calif.) was added to blocking buffer. After two hours of incubation at room temperature with shaking at 300 rpm, plates were washed with wash buffer. 100 uL of TMB (One-step TMB, Pierce/Thermo, Cat. No. 34022) was added to all wells. Plates were incubated at room temperature for 15 minutes with shaking at 300 rpm. Colorimetric reactions were stopped by the addition of 100 uL of 2 N H2SO4. Plates were read at 450 nm (Spectramax, Molecular Devices, Sunnyvale, Calif.) and data was analyzed using SoftMax Pro software (Molecular Devices).
The immunogenic response of wild-type mice administered G-CNP37, PEO12-GANRR-CNP22(K4R) (SEQ ID NO: 36) or Pro-Gly-CNP37, as measured by an increase in serum IgG level, was also assessed by examining terminal bleed serum samples as described above.

Data set [5] has as its system wild-type FVB mice. Conditions: mouse, in vivo. The source says:
Group 1 included vehicle-treated mice injected s.c. daily for 9 weeks followed by 1 week of no treatment. Group 2 included mice treated with Pro-Gly-CNP37 (20 nmol/kg) once daily for 1 week, followed by three doses per week for 8 weeks, followed by 1 week of no treatment. Group 3 contained mice treated with Pro-Gly-CNP37 (20 nmol/kg) once daily in alternate weeks (weeks 1, 3, 5, 7 and 9), with 1 week of no treatment following each week of treatment. Group 4 contained mice treated with Pro-Gly-CNP37 (5 nmol/kg) once daily for 9 weeks followed by 1 week of no treatment. Finally, Group 5 included mice treated with Pro-Gly-CNP37 (5 nmol/kg) once daily for 5 weeks without any week of no treatment. Terminal bleed serum was collected from the mice, and cleaved collagen type II, total alkaline phosphatase and total antibody levels were measured therefrom. Cleaved collagen type II levels were measured as described above. Total alkaline phosphatase levels, predominantly from the liver and bones, were measured with the assistance of a veterinary diagnostic laboratory testing facility (Antech). […] Among the advantages of the ECLA platform, any isotype of antibody (IgG, IgM, etc.) can be detected, and the ECLA assay is species-independent. […] At the end of the 1 hour incubation, the MSD plate was washed and 150 uL of 2× read buffer (MSD Cat. No. R92TC-2) was added to the plate. […]

For data set [6], the system named is wild type FVB mice. Briefly: dose responses of CNP variants in wild type FVB mice. Conditions: mouse, in vivo. Here is the method:
Tail length and body weight were measured over the course of treatment. Animals were sacrificed at the end of the experiment and bone length assessed.

Chain of neutral endopeptidase (NEP) (P08473 whole entry): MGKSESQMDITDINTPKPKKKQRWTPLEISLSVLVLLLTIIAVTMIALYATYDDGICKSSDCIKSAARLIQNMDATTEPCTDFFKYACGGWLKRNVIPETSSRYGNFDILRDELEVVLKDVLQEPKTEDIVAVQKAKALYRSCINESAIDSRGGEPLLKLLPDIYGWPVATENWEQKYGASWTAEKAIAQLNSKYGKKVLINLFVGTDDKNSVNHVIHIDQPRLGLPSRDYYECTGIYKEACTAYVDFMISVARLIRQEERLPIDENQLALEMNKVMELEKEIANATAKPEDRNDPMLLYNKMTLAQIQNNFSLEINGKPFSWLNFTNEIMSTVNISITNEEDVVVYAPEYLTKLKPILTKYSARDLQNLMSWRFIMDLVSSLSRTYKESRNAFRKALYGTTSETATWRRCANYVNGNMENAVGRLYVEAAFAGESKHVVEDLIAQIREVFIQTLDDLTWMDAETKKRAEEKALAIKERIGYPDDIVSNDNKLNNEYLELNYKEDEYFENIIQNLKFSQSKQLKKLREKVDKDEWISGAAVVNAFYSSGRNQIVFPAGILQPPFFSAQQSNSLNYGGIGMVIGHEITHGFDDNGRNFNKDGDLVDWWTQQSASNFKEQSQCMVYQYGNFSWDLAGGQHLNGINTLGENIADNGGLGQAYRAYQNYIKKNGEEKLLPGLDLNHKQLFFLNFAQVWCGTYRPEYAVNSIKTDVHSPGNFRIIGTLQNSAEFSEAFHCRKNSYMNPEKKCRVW
Chain of Recombinant human NEP (P08473 whole entry): as above

On to `CC[C@H](C)[C@@H]1NC(=O)[C@H](CCCNC(=N)N)NC(=O)[C@H](CC(=O)O)NC(=O)[C@H](CC(C)C)NC(=O)[C@H](CCCCN)NC(=O)[C@H](CC(C)C)NC(=O)CNC(=O)[C@H](Cc2ccccc2)NC(=O)[C@@H](NC(=O)CNC(=O)[C@H](CCCCN)NC(=O)[C@H](CO)NC(=O)[C@H](CC(C)C)NC(=O)CNC(=O)[C@H](CCCCN)NC(=O)[C@H](CCCCN)NC(=O)[C@H](CC(N)=O)NC(=O)[C@H](C)NC(=O)CNC(=O)[C@H](CCCCN)NC(=O)[C@H](Cc2ccccc2)NC(=O)[C@H](CCCNC(=N)N)NC(=O)[C@H](Cc2c[nH]cn2)NC(=O)[C@H](C)NC(=O)[C@@H](NC(=O)[C@H](CCC(=O)O)NC(=O)[C@H](CO)NC(=O)[C@H](CCCCN)NC(=O)[C@H](Cc2c[nH]cn2)NC(=O)CN)C(C)C)CSSC[C@@H](C(=O)O)NC(=O)CNC(=O)[C@H](CC(C)C)NC(=O)CNC(=O)[C@H](CO)NC(=O)[C@H](CCSC)NC(=O)[C@H](CO)NC(=O)CNC1=O` [HSA-CNP27], for which, in data set [1], the “resistance to NEP cleavage (in words)” value is “most resistant to NEP degradation”. In data set [2], the half-life (usually the time needed for the level to fall by half in the phase considered) at 100 uM was above 2.67 h. Also, the “anti-CNP antibodies (IgG antibody response)” value in data set [3] was “elicited and IgG antibody response”.

For `CC[C@H](C)[C@@H]1NC(=O)[C@H](CCCNC(=N)N)NC(=O)[C@H](CC(=O)O)NC(=O)[C@H](CC(C)C)NC(=O)[C@H](CCCCN)NC(=O)[C@H](CC(C)C)NC(=O)CNC(=O)[C@H](Cc2ccccc2)NC(=O)[C@@H](NC(=O)CNC(=O)[C@H](CCCCN)NC(=O)[C@H](CO)NC(=O)[C@H](CC(C)C)NC(=O)CNC(=O)[C@H](CCCCN)NC(=O)[C@H](CCCCN)NC(=O)[C@H](CC(N)=O)NC(=O)[C@H](C)NC(=O)CNC(=O)[C@H](CCCCN)NC(=O)[C@H](Cc2ccc(O)cc2)NC(=O)[C@H](CCCCN)NC(=O)[C@H](CCCNC(=N)N)NC(=O)[C@H](C)NC(=O)[C@H](CC(N)=O)NC(=O)[C@@H]2CCCN2C(=O)[C@H](Cc2c[nH]cn2)NC(=O)[C@H](CCC(=O)O)NC(=O)[C@H](CCC(N)=O)NC(=O)CNC(=O)[C@@H]2CCCN2)CSSC[C@@H](C(=O)O)NC(=O)CNC(=O)[C@H](CC(C)C)NC(=O)CNC(=O)[C@H](CO)NC(=O)[C@H](CCSC)NC(=O)[C@H](CO)NC(=O)CNC1=O` [Pro-Gly-CNP37], the “resistance to NEP cleavage (in words)” value in data set [1] (in vitro NEP assay, assay period 160 minutes) is “most resistant to NEP degradation”. Also, in data set [2], the half-life at 100 uM is above 2.67 h. In addition, the IgG immune response entry in data set [4] was “None of the wild-type mice”. Further, the “antibody response in the total antibody assay” value in data set [5] was “did not show a positive antibody response”. In data set [6], the “organ weight compared with vehicle treated animals” value was “no significant changes”.

The values are drawn from patent publication USRE48267E1, “Variants of C-type natriuretic peptide” (priority 2009, dated 2020).
